Laboratory results as given in ChEMBL document CHEMBL1201862, “PubChem BioAssay data set” (2004).
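Cells were grown in 96-well plates and exposed to each compound for 48 hours at five concentrations; endpoints were interpolated linearly between bracketing concentrations, or set to the highest concentration if not reached. GI50: concentration for 50% inhibition of growth.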 Active and inactive are the calls of the source. No stated cut-off is given here; in the data, active = GI50 up to about 1.1 µM and inactive = higher.

What was measured:
Experiment in all cases: NCI-60 cell line screen, 48 h
[1] = system: SF-295
[2] = system: 786-0
[3] = system: CAKI-1
[4] = system: SNB-78
[5] = system: SK-OV-3
[6] = system: OVCAR-5
[7] = system: U-251
[8] = system: HOP-18
[9] = system: LOX IMVI
[10] = system: XF498
[11] = system: SK-MEL-5
[12] = system: SNB-75
[13] = system: OVCAR-4
[14] = system: NCI-H460
[15] = system: UACC-62
[16] = system: IGROV-1
[17] = system: SW-620
[18] = system: OVCAR-3
[19] = system: HCT-116
[20] = system: RXF 393
[21] = system: SN12C
[22] = system: DLD-1
[23] = system: HL-60
[24] = system: UACC-257
[25] = system: K562
[26] = system: NCI-H522
[27] = system: SK-MEL-28
[28] = system: OVCAR-8
[29] = system: M14
[30] = system: A498
[31] = system: HCT-15
[32] = system: HOP-62
[33] = system: NCI-H226
[34] = system: KM12
[35] = system: RPMI-8226
[36] = system: Malme-3M
[37] = system: SK-MEL-2
[38] = system: DMS-114
[39] = system: EKVX
[40] = system: SF-539
[41] = system: TK-10
[42] = system: UO-31
[43] = system: NCI-H23
[44] = system: HCC 2998
[45] = system: MOLT-4
[46] = system: SR
[47] = system: SNB-19
[48] = system: ACHN
[49] = system: A549
[50] = system: LXFL 529
[51] = system: DMS-273
[52] = system: CCRF-CEM
[53] = system: KM-20L2
[54] = system: COLO 205
[55] = system: HOP-92
[56] = system: SF-268
[57] = system: HT-29
[58] = system: Hs-578T
[59] = system: DU-145
[60] = system: M19-MEL
[61] = system: PC-3
[62] = system: T47D
[63] = system: BT-549
[64] = system: MDA-N
[65] = system: NCI/ADR-RES
[66] = system: MCF7
[67] = system: MDA-MB-231

With `O=C(CCc1nnc(S)[nH]1)Nc1cccc(C(F)(F)F)c1` the GI50 [1] was > 100 µM (inactive), the GI50 [2] was > 100 µM (inactive) and the GI50 [3] was > 100 µM (inactive). The GI50 [4] was > 100 µM (inactive), the GI50 [5] was > 100 µM (inactive) and the GI50 [6] was > 100 µM (inactive). For the same compound, the GI50 [7] was > 100 µM (inactive), the GI50 [8] was > 100 µM (inactive) and the GI50 [9] was > 100 µM (inactive). The GI50 [10] was > 100 µM (inactive), the GI50 [11] was > 100 µM (inactive) and the GI50 [12] was > 100 µM (inactive). The GI50 [13] was > 100 µM (inactive), the GI50 [14] was > 100 µM (inactive) and the GI50 [15] was > 100 µM (inactive). The GI50 [16] was > 100 µM (inactive), the GI50 [17] was 11.2 µM (inactive) and the GI50 [18] was > 100 µM (inactive). For the same compound, the GI50 [19] was > 100 µM (inactive), the GI50 [20] was > 100 µM (inactive) and the GI50 [21] was > 100 µM (inactive). For the same compound, the GI50 [22] was > 100 µM (inactive), the GI50 [23] was > 100 µM (inactive) and the GI50 [24] was > 100 µM (inactive). For the same compound, the GI50 [25] was > 100 µM (inactive), the GI50 [26] was 35.2 µM (inactive) and the GI50 [27] was > 100 µM (inactive). For the same compound, the GI50 [28] was > 100 µM (inactive), the GI50 [29] was > 100 µM (inactive) and the GI50 [30] was > 100 µM (inactive). The GI50 [31] was over 100 µM, the GI50 [32] was > 100 µM (inactive) and the GI50 [33] was > 100 µM (inactive). For the same compound, the GI50 [34] was > 100 µM (inactive), the GI50 [35] was > 100 µM (inactive) and the GI50 [36] was > 100 µM (inactive). The GI50 [37] was > 100 µM (inactive), the GI50 [38] was > 100 µM (inactive) and the GI50 [39] was > 100 µM (inactive). The GI50 [40] was > 100 µM (inactive), the GI50 [41] was > 100 µM (inactive) and the GI50 [42] was > 100 µM (inactive). For the same compound, the GI50 [43] was > 100 µM (inactive), the GI50 [44] was > 100 µM (inactive) and the GI50 [45] was > 100 µM (inactive). The GI50 [46] was > 100 µM (inactive), the GI50 [47] was > 100 µM (inactive) and the GI50 [48] was > 100 µM (inactive). For the same compound, the GI50 [49] was > 100 µM (inactive), the GI50 [50] was > 100 µM (inactive) and the GI50 [51] was > 100 µM (inactive). For the same compound, the GI50 [52] was > 100 µM (inactive), the GI50 [53] was > 100 µM (inactive) and the GI50 [54] was 80 µM (inactive). For the same compound, the GI50 [55] was > 100 µM (inactive), the GI50 [56] was > 100 µM (inactive) and the GI50 [57] was > 100 µM (inactive).

In the case of `Cc1c(-c2ccc(-c3ccccc3F)cc2)nc2ccc(F)cc2c1C(=O)O` [BREQUINAR SODIUM], the GI50 [1] is reported as 0.243 µM (active), the GI50 [2] is reported as 0.195 µM (active) and the GI50 [3] is reported as 0.904 µM (active). For the same compound, the GI50 [5] was 16.1 µM (inactive), the GI50 [58] was 6.93 µM (inactive) and the GI50 [6] was 38.8 µM (inactive). For the same compound, the GI50 [7] was 0.194 µM (active), the GI50 [8] was 46.1 µM (inactive) and the GI50 [9] was 0.0931 µM (active). For the same compound, the GI50 [10] was 18.1 µM (inactive), the GI50 [11] was 1.39 µM (inactive) and the GI50 [12] was 30.3 µM (inactive). The GI50 [13] was 2.73 µM (inactive), the GI50 [14] was 0.128 µM (active) and the GI50 [59] was 0.262 µM (active). For the same compound, the GI50 [60] was 1.2 µM (inactive), the GI50 [61] was 0.5 µM (active) and the GI50 [15] was 0.265 µM (active). For the same compound, the GI50 [16] was 0.303 µM (active), the GI50 [17] was 0.384 µM (active) and the GI50 [18] was 3.74 µM (inactive). The GI50 [19] was 0.104 µM (active), the GI50 [20] was 11.7 µM (inactive) and the GI50 [62] was 16.9 µM (inactive). For the same compound, the GI50 [21] was 1.79 µM (inactive), the GI50 [22] was 0.0875 µM (active) and the GI50 [63] was 155 µM (inactive). For the same compound, the GI50 [23] was 0.479 µM (active), the GI50 [24] was 12.5 µM (inactive) and the GI50 [25] was 0.143 µM (active). The GI50 [26] was 2 µM (inactive), the GI50 [27] was 9.93 µM (inactive) and the GI50 [28] was 0.325 µM (active). The GI50 [64] was 0.631 µM (active), the GI50 [29] was 4.7 µM (inactive) and the GI50 [30] was 49.8 µM (inactive). For the same compound, the GI50 [65] was 2.18 µM (inactive), the GI50 [66] was 0.267 µM (active) and the GI50 [31] was 0.0566 µM. The GI50 [32] was 1.1 µM (active), the GI50 [33] was 19.5 µM (inactive) and the GI50 [34] was 0.211 µM (active). The GI50 [35] was 0.373 µM (active), the GI50 [67] was 9.93 µM (inactive) and the GI50 [36] was 15.4 µM (inactive). For the same compound, the GI50 [37] was 61.8 µM (inactive), the GI50 [39] was 16 µM (inactive) and the GI50 [40] was 0.346 µM (active). For the same compound, the GI50 [41] was 16.3 µM (inactive), the GI50 [42] was 1.14 µM (inactive) and the GI50 [43] was 21.5 µM (inactive). For the same compound, the GI50 [44] was 9.62 µM (inactive), the GI50 [45] was 0.0887 µM (active) and the GI50 [46] was 0.427 µM (active). For the same compound, the GI50 [47] was 1.25 µM (inactive), the GI50 [48] was 0.153 µM (active) and the GI50 [49] was 0.234 µM (active). The GI50 [51] was 0.193 µM (active), the GI50 [52] was 0.284 µM (active) and the GI50 [53] was 0.615 µM (active). The GI50 [54] was 0.519 µM (active), the GI50 [55] was 35.2 µM (inactive) and the GI50 [56] was 0.372 µM (active). For the same compound, the GI50 [57] was 0.374 µM (active).
